Test results: ChEMBL document CHEMBL1135808, “A new type of mixed anhydride and its applications to the synthesis of 7-substituted 8-chloro-5,5-dioxoimidazo[1,2-b][1,4,2]benzodithiazines with in vitro antitumor activity” (2002)

Experiments:
BT-549 [1] = experiment: In vitro total growth inhibition against breast cancer BT 549 cell line was reported.; assay type: functional; conditions: Homo sapiens, read-out: Log TGI (converted)
Hs-578T = experiment: In vitro total growth inhibition against breast cancer HS 578T cell lines was reported.; assay type: functional; conditions: Homo sapiens, read-out: Log TGI (converted)
MDA-MB-231 = experiment: In vitro total growth inhibition against breast cancer MDA-MB-231/ATCC cell lines was reported.; assay type: functional; conditions: Homo sapiens, read-out: Log TGI (converted)
SNB-19 [2] = experiment: Log of molar concentration leading to 50% cell death against CNS cancer SNB-19 cell line was reported; assay type: functional; conditions: Homo sapiens, read-out: Log LC50 (the source's name) (converted)
SNB-19 [3] = experiment: In vitro total growth inhibition against CNS cancer SNB-19 cell lines was reported.; assay type: functional; conditions: Homo sapiens, read-out: Log TGI (converted)
SNB-75 [4] = experiment: Log of molar concentration leading to 50% cell death against CNS cancer SNB-75 cell line was reported; assay type: functional; conditions: Homo sapiens, read-out: Log LC50 (the source's name) (converted)
SNB-75 [5] = experiment: In vitro growth inhibition against CNS cancer SNB-75 cell line was reported.; assay type: functional; conditions: Homo sapiens
U-251 = experiment: In vitro growth inhibition against CNS cancer U251 cell line was reported.; assay type: functional; conditions: Homo sapiens
SF-268 = experiment: In vitro total growth inhibition against CNS cancer SF-268 cell lines was reported.; assay type: functional; conditions: Homo sapiens, read-out: Log TGI (converted)
KM12 = experiment: In vitro growth inhibition against colon cancer KM12 cell line was reported.; assay type: functional; conditions: Homo sapiens
Tumor Cell line = experiment: In vitro total growth inhibition for 50 cell lines was reported as log of molar concentration; assay type: functional, Homo sapiens
K562 [6] = experiment: In vitro growth inhibition against leukemia K-562 cell line was reported.; assay type: functional; conditions: Homo sapiens
K562 [7] = experiment: In vitro total growth inhibition against leukemia K-562 cell lines was reported.; assay type: functional; conditions: Homo sapiens, read-out: Log TGI (converted)
SK-MEL-5 [8] = experiment: In vitro growth inhibition against melanoma SK-MEL-5 cell line was reported.; assay type: functional; conditions: Homo sapiens
HOP-62 = experiment: Log of molar concentration leading to 50% cell death against non-small-cell lung cancer HOP-62 cell line was reported; assay type: functional; conditions: Homo sapiens, read-out: Log LC50 (the source's name) (converted)
NCI-H226 = experiment: Log of molar concentration leading to 50% cell death against non-small-cell lung cancer NCI-H226 cell line was reported; assay type: functional; conditions: Homo sapiens, read-out: Log LC50 (the source's name) (converted)
NCI-H23 [9] = experiment: Log of molar concentration leading to 50% cell death against non-small-cell lung cancer NCI-H23 cell line was reported; assay type: functional; conditions: Homo sapiens, read-out: Log LC50 (the source's name) (converted)
OVCAR-3 = experiment: In vitro total growth inhibition against ovarian cancer OVCAR-3 cell lines was reported.; assay type: functional; conditions: Homo sapiens, read-out: Log TGI (converted)
OVCAR-5 [10] = experiment: In vitro total growth inhibition against ovarian cancer OVCAR-5 cell lines was reported.; assay type: functional; conditions: Homo sapiens, read-out: Log TGI (converted)
SK-OV-3 = experiment: In vitro total growth inhibition against ovarian cancer SK-OV-3 cell lines was reported.; assay type: functional; conditions: Homo sapiens, read-out: Log TGI (converted)
SN12C [11] = experiment: In vitro growth inhibition against renal cancer SN12C cell line was reported.; assay type: functional; conditions: Homo sapiens
SN12C [12] = experiment: In vitro total growth inhibition against renal cancer SN12C cell lines was reported.; assay type: functional; conditions: Homo sapiens, read-out: Log TGI (converted)
TK-10 [13] = experiment: In vitro growth inhibition against renal cancer TK-10 cell line was reported.; assay type: functional; conditions: Homo sapiens
UO-31 [14] = experiment: In vitro growth inhibition against renal cancer UO-31 cell line was reported.; assay type: functional; conditions: Homo sapiens
SR = experiment: Log of molar concentration leading to 50% cell death against leukemia SR cell line was reported; assay type: functional; conditions: Homo sapiens, read-out: Log LC50 (the source's name) (converted)
MOLT-4 = experiment: Log of molar concentration leading to 50% cell death against leukemia MOLT-4 cell line was reported; assay type: functional; conditions: Homo sapiens, read-out: Log LC50 (the source's name) (converted)
CCRF-CEM = experiment: Log of molar concentration leading to 50% cell death against leukemia CCRF-CEM cell line was reported; assay type: functional; conditions: Homo sapiens, read-out: Log LC50 (the source's name) (converted)
K562 [15] = experiment: Log of molar concentration leading to 50% cell death against leukemia K-562 cell line was reported; assay type: functional; conditions: Homo sapiens, read-out: Log LC50 (the source's name) (converted)
HCT-15 = experiment: Log of molar concentration leading to 50% cell death against colon cancer HCT-15 cell line was reported; assay type: functional; conditions: Homo sapiens, read-out: Log LC50 (the source's name) (converted)
OVCAR-5 [16] = experiment: Log of molar concentration leading to 50% cell death against ovarian cancer […] cell line was reported; assay type: functional; conditions: Homo sapiens, read-out: Log LC50 (the source's name) (converted)
BT-549 [17] = experiment: Log of molar concentration leading to 50% cell death against breast cancer BT 549 cell line was reported; assay type: functional; conditions: Homo sapiens, read-out: Log LC50 (the source's name) (converted)
MDA-N = experiment: Log of molar concentration leading to 50% cell death against breast cancer MDA-Ncell line was reported; assay type: functional; conditions: Homo sapiens, read-out: Log LC50 (the source's name) (converted)
LOX IMVI = experiment: Log of molar concentration leading to 50% cell death against melanoma LOX IMVI cell line was reported; assay type: functional; conditions: Homo sapiens, read-out: Log LC50 (the source's name) (converted)
Malme-3M [18] = experiment: Log of molar concentration leading to 50% cell death against melanoma MALME 3M cell line was reported; assay type: functional; conditions: Homo sapiens, read-out: Log LC50 (the source's name) (converted)
Malme-3M [19] = experiment: In vitro total growth inhibition against melanoma MALME 3M cell lines was reported.; assay type: functional; conditions: Homo sapiens, read-out: Log TGI (converted)
SK-MEL-28 = experiment: In vitro total growth inhibition against melanoma SK-MEL-28 cell lines was reported.; assay type: functional; conditions: Homo sapiens, read-out: Log TGI (converted)
SK-MEL-5 [20] = experiment: Log of molar concentration leading to 50% cell death against melanoma SK-MEL-5 cell line was reported; assay type: functional; conditions: Homo sapiens, read-out: Log LC50 (the source's name) (converted)
IGROV-1 = experiment: Log of molar concentration leading to 50% cell death against ovarian cancer IGROV1 cell line was reported; assay type: functional; conditions: Homo sapiens, read-out: Log LC50 (the source's name) (converted)
HOP-92 [21] = experiment: In vitro growth inhibition against non-small-cell lung cancer HOP-92 cell line was reported.; assay type: functional; conditions: Homo sapiens
NCI-H46 = experiment: In vitro growth inhibition against non-small-cell lung cancer […] cell line was reported.; assay type: functional; conditions: Homo sapiens
NCI-H23 [22] = experiment: In vitro growth inhibition against non-small-cell lung cancer NCI-H23 cell line was reported.; assay type: functional; conditions: Homo sapiens
786-0 = experiment: Log of molar concentration leading to 50% cell death against renal cancer […] cell line was reported; assay type: functional; conditions: Homo sapiens, read-out: Log LC50 (the source's name) (converted)
A498 = experiment: Log of molar concentration leading to 50% cell death against renal cancer A498 cell line was reported; assay type: functional; conditions: Homo sapiens, read-out: Log LC50 (the source's name) (converted)
ACHN [23] = experiment: Log of molar concentration leading to 50% cell death against renal cancer ACHN cell line was reported; assay type: functional; conditions: Homo sapiens, read-out: Log LC50 (the source's name) (converted)
SN12C [24] = experiment: Log of molar concentration leading to 50% cell death against renal cancer SN12C cell line was reported; assay type: functional; conditions: Homo sapiens, read-out: Log LC50 (the source's name) (converted)
TK-10 [25] = experiment: Log of molar concentration leading to 50% cell death against renal cancer TK-10 cell line was reported; assay type: functional; conditions: Homo sapiens, read-out: Log LC50 (the source's name) (converted)
UO-31 [26] = experiment: Log of molar concentration leading to 50% cell death against renal cancer UO-31 cell line was reported; assay type: functional; conditions: Homo sapiens, read-out: Log LC50 (the source's name) (converted)
ACHN [27] = experiment: In vitro growth inhibition against renal cancer ACHN cell line was reported.; assay type: functional; conditions: Homo sapiens
COLO 205 = experiment: In vitro growth inhibition against colon cancer COLO 205 cell line was reported.; assay type: functional; conditions: Homo sapiens
HCC 2998 = experiment: Log of molar concentration leading to 50% cell death against colon cancer HCC2998 cell line was reported; assay type: functional; conditions: Homo sapiens, read-out: Log LC50 (the source's name) (converted)
HOP-92 [28] = experiment: In vitro total growth inhibition against non-small-cell lung cancer HOP-92 cell lines was reported.; conditions: Homo sapiens, read-out: Log TGI (converted)
SW-620 = experiment: Log of molar concentration leading to 50% cell death against colon cancer SW620 cell line was reported; assay type: functional; conditions: Homo sapiens, read-out: Log LC50 (the source's name) (converted)
T47D = experiment: Log of molar concentration leading to 50% cell death against breast cancer […] cell line was reported; assay type: functional; conditions: Homo sapiens, read-out: Log LC50 (the source's name) (converted)

O=C(Nc1nccs1)c1cc2c(cc1Cl)Sc1nccn1S2(=O)=O
TGI (BT-549 [1]): 35.5 µM
TGI (Hs-578T): 91.2 µM
TGI (MDA-MB-231): 36.3 µM
CC50 (SNB-19 [2]): 72.4 µM
TGI (SNB-19 [3]): 37.2 µM
CC50 (SNB-75 [4]): 66.1 µM
GI50 (SNB-75 [5]): 18.6 µM
GI50 (U-251): 17.4 µM
TGI (SF-268): 46.8 µM
GI50 (KM12): 12.3 µM
Log GTI (Tumor Cell line): -4.04
GI50 (K562 [6]): 15.8 µM
TGI (K562 [7]): 46.8 µM
GI50 (SK-MEL-5 [8]): 16.6 µM
CC50 (HOP-62): 61.7 µM
CC50 (NCI-H226): 64.6 µM
CC50 (NCI-H23 [9]): 67.6 µM
TGI (OVCAR-3): 28.2 µM
TGI (OVCAR-5 [10]): 45.7 µM
TGI (SK-OV-3): 64.6 µM
GI50 (SN12C [11]): 17 µM
TGI (SN12C [12]): 32.4 µM
GI50 (TK-10 [13]): 19.1 µM
GI50 (UO-31 [14]): 4.37 µM
CC50 (SR): 46.8 µM
CC50 (MOLT-4): 93.3 µM
CC50 (CCRF-CEM): 95.5 µM
CC50 (K562 [15]): 87.1 µM
CC50 (HCT-15): 93.3 µM
CC50 (OVCAR-5 [16]): 97.7 µM
CC50 (BT-549 [17]): 69.2 µM
CC50 (MDA-N): 61.7 µM
CC50 (LOX IMVI): 60.3 µM
CC50 (Malme-3M [18]): 69.2 µM
TGI (Malme-3M [19]): 37.2 µM
TGI (SK-MEL-28): 38 µM
CC50 (SK-MEL-5 [20]): 55 µM
CC50 (IGROV-1): 75.9 µM
GI50 (HOP-92 [21]): 15.1 µM
GI50 (NCI-H46): 15.8 µM
GI50 (NCI-H23 [22]): 17 µM
CC50 (786-0): 53.7 µM
CC50 (A498): 63.1 µM
CC50 (ACHN [23]): 58.9 µM
CC50 (SN12C [24]): 63.1 µM
CC50 (TK-10 [25]): 63.1 µM
CC50 (UO-31 [26]): 46.8 µM
GI50 (ACHN [27]): 17.8 µM
GI50 (COLO 205): 17 µM
CC50 (HCC 2998): 53.7 µM
TGI (HOP-92 [28]): 39.8 µM

Cc1ccc2cccc(NC(=O)c3cc4c(cc3Cl)Sc3nccn3S4(=O)=O)c2n1
TGI (BT-549 [1]): 60.3 µM
TGI (MDA-MB-231): 24 µM
TGI (SNB-19 [3]): 33.9 µM
GI50 (SNB-75 [5]): 6.92 µM
GI50 (U-251): 3.47 µM
GI50 (KM12): 6.61 µM
Log GTI (Tumor Cell line): -4.01
GI50 (K562 [6]): 4.07 µM
TGI (K562 [7]): 38 µM
GI50 (SK-MEL-5 [8]): 10.7 µM
CC50 (HOP-62): 39.8 µM
TGI (OVCAR-3): 11.5 µM
TGI (OVCAR-5 [10]): 37.2 µM
TGI (SK-OV-3): 97.7 µM
GI50 (SN12C [11]): 12.3 µM
GI50 (TK-10 [13]): 8.51 µM
GI50 (UO-31 [14]): 1.02 µM
CC50 (SR): 27.5 µM
CC50 (SW-620): 58.9 µM
CC50 (OVCAR-5 [16]): 91.2 µM
CC50 (T47D): 38 µM
CC50 (LOX IMVI): 45.7 µM
CC50 (Malme-3M [18]): 64.6 µM
TGI (Malme-3M [19]): 33.1 µM
TGI (SK-MEL-28): 26.9 µM
CC50 (SK-MEL-5 [20]): 50.1 µM
CC50 (IGROV-1): 23.4 µM
GI50 (HOP-92 [21]): 14.5 µM
GI50 (NCI-H46): 2.63 µM
GI50 (NCI-H23 [22]): 13.8 µM
CC50 (786-0): 91.2 µM
CC50 (TK-10 [25]): 45.7 µM
GI50 (ACHN [27]): 8.51 µM
GI50 (COLO 205): 17 µM
CC50 (HCC 2998): 14.5 µM
TGI (HOP-92 [28]): 67.6 µM
